Values joined by “and” are separate entries in the source; they are usually repeats but may differ in a detail not shown here. Equal entries are not always repeated.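 How tested: cells in 96-well plates exposed to compound for 48 hours at five concentrations. GI50 is the concentration that inhibits growth by half. TGI denotes the concentration required for complete inhibition of growth.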
Key:
Experiment in all cases: NCI anticancer screen, dose series, 48 h
HL-60(TB) leukemia = system: HL-60(TB) leukemia
MALME-3M melanoma = system: MALME-3M melanoma
HT29 colon = system: HT29 colon
MOLT-4 leukemia = system: MOLT-4 leukemia
MDA-MB-435 = system: MDA-MB-435
K-562 leukemia = system: K-562 leukemia
HCC-2998 colon = system: HCC-2998 colon
A549 NSCLC = system: A549 NSCLC
SF-539 CNS = system: SF-539 CNS
UACC-62 melanoma = system: UACC-62 melanoma
A498 renal = system: A498 renal
MDA-MB-231 breast = system: MDA-MB-231 breast
SNB-19 CNS = system: SNB-19 CNS
HS 578T breast = system: HS 578T breast
CCRF-CEM leukemia = system: CCRF-CEM leukemia
NCI/ADR-RES ovarian = system: NCI/ADR-RES ovarian
ACHN renal = system: ACHN renal
SW-620 colon = system: SW-620 colon
SF-268 CNS = system: SF-268 CNS
MCF7 breast = system: MCF7 breast
OVCAR-8 ovarian = system: OVCAR-8 ovarian
CAKI-1 renal = system: CAKI-1 renal
OVCAR-3 ovarian = system: OVCAR-3 ovarian
SF-295 CNS = system: SF-295 CNS
MDA-MB-468 breast = system: MDA-MB-468 breast
SK-MEL-28 melanoma = system: SK-MEL-28 melanoma
NCI-H226 lung = system: NCI-H226 lung
NCI-H460 lung = system: NCI-H460 lung
SN12C renal = system: SN12C renal
PC-3 prostate = system: PC-3 prostate
OVCAR-4 ovarian = system: OVCAR-4 ovarian
HOP-92 NSCLC = system: HOP-92 NSCLC
COLO 205 colon = system: COLO 205 colon
UACC-257 melanoma = system: UACC-257 melanoma
UO-31 renal = system: UO-31 renal
BT-549 breast = system: BT-549 breast
IGROV1 ovarian = system: IGROV1 ovarian
SK-MEL-2 melanoma = system: SK-MEL-2 melanoma
HCT-15 colon = system: HCT-15 colon
SK-OV-3 ovarian = system: SK-OV-3 ovarian
SK-MEL-5 melanoma = system: SK-MEL-5 melanoma
NCI-H23 lung = system: NCI-H23 lung
LOX IMVI melanoma = system: LOX IMVI melanoma
OVCAR-5 ovarian = system: OVCAR-5 ovarian
RXF 393 renal = system: RXF 393 renal
SR leukemia = system: SR leukemia
KM12 colon = system: KM12 colon
EKVX NSCLC = system: EKVX NSCLC
M14 melanoma = system: M14 melanoma
SNB-75 CNS = system: SNB-75 CNS
786-0 renal = system: 786-0 renal
RPMI-8226 leukemia = system: RPMI-8226 leukemia
DU-145 prostate = system: DU-145 prostate
TK-10 renal = system: TK-10 renal
HOP-62 NSCLC = system: HOP-62 NSCLC
U251 CNS = system: U251 CNS
NCI-H522 lung = system: NCI-H522 lung
T-47D breast = system: T-47D breast
HCT-116 colon = system: HCT-116 colon

For `O=C(c1cc2cc(OCCCN3CCC3)ccc2[nH]1)N1C[C@@H](CCl)c2c1cc(OCc1ccccc1)c1ccccc21`, the GI50 (HL-60(TB) leukemia) was 1220 nM and 442 nM, the TGI (HL-60(TB) leukemia) was 3560 nM and 4050 nM and the GI50 (MALME-3M melanoma) was 481 nM and 276 nM. The TGI (MALME-3M melanoma) was 1790 nM and 557 nM, the GI50 (HT29 colon) was 285 nM and 273 nM and the TGI (HT29 colon) was 1350 nM and 2000 nM. For the same molecule, the GI50 (MOLT-4 leukemia) was 339 nM and 272 nM, the TGI (MOLT-4 leukemia) was 4560 nM and 3870 nM and the GI50 (MDA-MB-435) was 1050 nM and 331 nM. For the same molecule, the TGI (MDA-MB-435) was 2270 nM and 739 nM, the GI50 (K-562 leukemia) was 302 nM and 251 nM and the TGI (K-562 leukemia) was 19800 nM. The GI50 (HCC-2998 colon) was 255 nM and 319 nM, the TGI (HCC-2998 colon) was 1230 nM and 660 nM and the GI50 (A549 NSCLC) was 157 nM and 161 nM. The TGI (A549 NSCLC) was 626 nM and 2540 nM, the GI50 (SF-539 CNS) was 225 nM and 295 nM and the TGI (SF-539 CNS) was 1000 nM and 663 nM. The GI50 (UACC-62 melanoma) was 145 nM and 62 nM, the TGI (UACC-62 melanoma) was 481 nM and 325 nM and the GI50 (A498 renal) was 235 nM. The TGI (A498 renal) was 633 nM, the GI50 (MDA-MB-231 breast) was 691 nM and 544 nM and the TGI (MDA-MB-231 breast) was 2100 nM and 1360 nM. For the same molecule, the GI50 (SNB-19 CNS) was 687 nM and 333 nM, the TGI (SNB-19 CNS) was 2330 nM and 2400 nM and the GI50 (HS 578T breast) was 1250 nM and 746 nM. The TGI (HS 578T breast) was 3980 nM and 5990 nM, the GI50 (CCRF-CEM leukemia) was 845 nM and 408 nM and the TGI (CCRF-CEM leukemia) was 7750 nM and 17500 nM. For the same molecule, the GI50 (NCI/ADR-RES ovarian) was 252 nM, the TGI (NCI/ADR-RES ovarian) was 1400 nM and the GI50 (ACHN renal) was 78.5 nM and 34.6 nM. For the same molecule, the TGI (ACHN renal) was 248 nM and 96.7 nM, the GI50 (SW-620 colon) was 234 nM and 258 nM and the TGI (SW-620 colon) was 1560 nM and 1280 nM. For the same molecule, the GI50 (SF-268 CNS) was 437 nM and 332 nM, the TGI (SF-268 CNS) was 2420 nM and 2040 nM and the GI50 (MCF7 breast) was 10.5 nM and 3.22 nM. The TGI (MCF7 breast) was 324 nM and 851 nM, the GI50 (OVCAR-8 ovarian) was 274 nM and 242 nM and the TGI (OVCAR-8 ovarian) was 1440 nM and 1530 nM. For the same molecule, the GI50 (CAKI-1 renal) was 289 nM and 193 nM, the TGI (CAKI-1 renal) was 1500 nM and 1680 nM and the GI50 (OVCAR-3 ovarian) was 1130 nM and 497 nM. For the same molecule, the TGI (OVCAR-3 ovarian) was 2620 nM and 1610 nM, the GI50 (SF-295 CNS) was 154 nM and 46.1 nM and the TGI (SF-295 CNS) was 447 nM and 230 nM. The GI50 (MDA-MB-468 breast) was 43.8 nM, the TGI (MDA-MB-468 breast) was 130 nM and the GI50 (SK-MEL-28 melanoma) was 507 nM and 329 nM. For the same molecule, the TGI (SK-MEL-28 melanoma) was 1800 nM and 749 nM, the GI50 (NCI-H226 lung) was 1210 nM and 211 nM and the TGI (NCI-H226 lung) was 4340 nM and 631 nM. The GI50 (NCI-H460 lung) was 121 nM and 17.1 nM, the TGI (NCI-H460 lung) was 469 nM and 1120 nM and the GI50 (SN12C renal) was 345 nM and 357 nM. The TGI (SN12C renal) was 1500 nM and 2110 nM, the GI50 (PC-3 prostate) was 294 nM and 367 nM and the TGI (PC-3 prostate) was 2630 nM and 4600 nM. For the same molecule, the GI50 (OVCAR-4 ovarian) was 1130 nM and 536 nM, the TGI (OVCAR-4 ovarian) was 3010 nM and 1690 nM and the GI50 (HOP-92 NSCLC) was 1160 nM and 504 nM. The TGI (HOP-92 NSCLC) was 3280 nM and 1830 nM, the GI50 (COLO 205 colon) was 629 nM and 280 nM and the TGI (COLO 205 colon) was 1990 nM and 644 nM. For the same molecule, the GI50 (UACC-257 melanoma) was 792 nM, the TGI (UACC-257 melanoma) was 2300 nM and the GI50 (UO-31 renal) was 171 nM and 264 nM. For the same molecule, the TGI (UO-31 renal) was 449 nM and 681 nM, the GI50 (BT-549 breast) was 384 nM and 530 nM and the TGI (BT-549 breast) was 1720 nM and 2190 nM. For the same molecule, the GI50 (IGROV1 ovarian) was 310 nM and 189 nM, the TGI (IGROV1 ovarian) was 1470 nM and 1330 nM and the GI50 (SK-MEL-2 melanoma) was 1090 nM and 374 nM. For the same molecule, the TGI (SK-MEL-2 melanoma) was 2320 nM and 659 nM, the GI50 (HCT-15 colon) was 171 nM and 134 nM and the TGI (HCT-15 colon) was 838 nM and 787 nM. For the same molecule, the GI50 (SK-OV-3 ovarian) was 401 nM and 453 nM, the TGI (SK-OV-3 ovarian) was 1640 nM and 1720 nM and the GI50 (SK-MEL-5 melanoma) was 322 nM and 272 nM. The TGI (SK-MEL-5 melanoma) was 1300 nM and 537 nM, the GI50 (NCI-H23 lung) was 186 nM and 73 nM and the TGI (NCI-H23 lung) was 619 nM and 318 nM. The GI50 (LOX IMVI melanoma) was 132 nM and 56.4 nM, the TGI (LOX IMVI melanoma) was 427 nM and 451 nM and the GI50 (OVCAR-5 ovarian) was 302 nM and 345 nM. The TGI (OVCAR-5 ovarian) was 1040 nM and 1060 nM, the GI50 (RXF 393 renal) was 362 nM and 234 nM and the TGI (RXF 393 renal) was 1630 nM and 509 nM. The GI50 (SR leukemia) was 97.4 nM and 43.9 nM, the TGI (SR leukemia) was 5010 nM and the GI50 (KM12 colon) was 731 nM and 813 nM. For the same molecule, the TGI (KM12 colon) was 2220 nM and 10100 nM, the GI50 (EKVX NSCLC) was 271 nM and 371 nM and the TGI (EKVX NSCLC) was 1370 nM and 956 nM. The GI50 (M14 melanoma) was 283 nM and 212 nM, the TGI (M14 melanoma) was 1210 nM and 653 nM and the GI50 (SNB-75 CNS) was 1020 nM. For the same molecule, the TGI (SNB-75 CNS) was 2210 nM, the GI50 (786-0 renal) was 293 nM and 266 nM and the TGI (786-0 renal) was 913 nM and 1710 nM. The GI50 (RPMI-8226 leukemia) was 941 nM and 496 nM, the TGI (RPMI-8226 leukemia) was 9530 nM and 9500 nM and the GI50 (DU-145 prostate) was 254 nM and 82 nM. For the same molecule, the TGI (DU-145 prostate) was 1250 nM and 2920 nM, the GI50 (TK-10 renal) was 1530 nM and 562 nM and the TGI (TK-10 renal) was 3000 nM and 1420 nM. The GI50 (HOP-62 NSCLC) was 214 nM and 139 nM, the TGI (HOP-62 NSCLC) was 694 nM and 647 nM and the GI50 (U251 CNS) was 247 nM and 61.2 nM. For the same molecule, the TGI (U251 CNS) was 1030 nM and 2390 nM, the GI50 (NCI-H522 lung) was 1230 nM and 384 nM and the TGI (NCI-H522 lung) was 2870 nM and 929 nM. For the same molecule, the GI50 (T-47D breast) was 375 nM and 202 nM, the TGI (T-47D breast) was 1690 nM and 1040 nM and the GI50 (HCT-116 colon) was 147 nM and 637 nM. The TGI (HCT-116 colon) was 443 nM and 2460 nM.

Reference: PubChem BioAssay (NCI)
